Values joined by “and” are separate entries in the source; they are usually repeats but may differ in a detail not shown here. Equal entries are not always repeated.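 Cells were grown in 96-well plates and exposed to each compound for 48 hours at five concentrations; endpoints were interpolated linearly between bracketing concentrations, or set to the highest concentration if not reached. GI50: concentration for 50% inhibition of growth. TGI denotes the concentration required for complete inhibition of growth.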
Tested on: MDA-MB-468 breast
Test: NCI tumour cell line growth inhibition, 48 h

Row | Structure (SMILES) | GI50 | TGI
1 | COc1cc(/C=N/Nc2ncnc3c2cnn3C(C)C)ccc1O | 9320 nM | 24600 nM
2 | O=C(/C=C/C12c3ccccc3C(c3ccccc31)C1C(=O)N(c3ccccc3)C(=O)C12)c1ccc(Cl)cc1 (stereo unspecified) | 1880 nM | 5870 nM
3 | Cc1cc(Cc2cc(C)c(O)c(C)c2)cc(C)c1O | 2550 nM | 9750 nM
4 | Oc1c(C(Nc2cccc3ccccc23)c2ccccc2)ccc2cccnc12 (stereo unspecified) | 1790 nM | 4310 nM
5 | COc1ccc(-c2nn(-c3ccc(NC(=O)c4ccc(Cl)c(C(F)(F)F)c4)cc3)cc2-c2ccncc2)cc1Cl | 1600 nM | > 100000 nM
6 | Cc1c(C)c2c(c(C)c1NC(=O)/C=C\C(=O)O)CCC(C)(CCCC(C)CCCC(C)CCCC(C)C)O2 (stereo unspecified) | 1990 nM | 3980 nM
7 | O=C(/C=C/c1ccccc1)c1c[nH]c2ccccc2c1=O | 1800 nM | 4410 nM
8 | Cc1cc(N2CCN(C)CC2)nc(NCc2cc(Nc3ccnc4cc(Cl)ccc34)ccc2F)n1 | 1670 nM | 3590 nM
9 | O=C(/C=C1\C(=O)N(Cc2ccc([N+](=O)[O-])cc2)c2ccccc21)c1ccc(OCCN2CCCCC2)cc1 | 1110 nM | 2490 nM
10 | CC1=CC[C@@H]2C(C)(C)C(=O)CC[C@@]2(C)[C@@H]1COc1ccc2ccc(=O)oc2c1 | 4830 nM | 35900 nM
11 | Cc1cc2nc(C(Cl)Cl)nc(-c3cccs3)n2n1 | 314 nM | 1540 nM
12 | O=[N+]([O-])c1cc([N+](=O)[O-])c(Cl)c(Cl)c1Cl | 250 nM | 723 nM
13 | COc1ccc(C[n+]2c3ccccc3n3c4ccc(N)cc4ccc32)c(OC)c1OC | 275 nM | 1420 nM
14 | COc1cc(N2CCN(C(C)C)CC2)ccc1Nc1nc(Nc2cccc3ncccc23)c2cc[nH]c2n1 | 3590 nM | 8840 nM
15 | Oc1ccc(CSc2nnc(-c3ccncc3)n2-c2ccccc2)c2cccnc12 | 1350 nM | 16100 nM
16 | Cn1cc(C2=C(c3c4n(c5ccccc35)CCCC4)C(=O)NC2=O)c2ccccc21 | 5310 nM | > 25000 nM
17 | CN1CCN(CCCOc2cccc3nc(Nc4ccc(Cl)c(F)c4)ccc23)CC1 | 1720 nM | 3320 nM
18 | COc1ccc(Cl)cc1Nc1nc(C(F)(F)F)ccc1C(=O)N/N=C/c1ccc([N+](=O)[O-])cc1 | 1130 nM | 3680 nM
19 | COc1cc2c(c(OC)c1OC)C(=O)CC(c1cccc(NC(=O)c3ccc(Br)cc3)c1)O2 (stereo unspecified) | 1850 nM | 8010 nM
20 | O=C(Nc1ccc(F)cc1)c1cc(-c2ccc(F)cc2F)ccc1O | 2210 nM | 7480 nM
21 | COc1cc2ccccc2c2cc([N+](=O)[O-])oc12 | 1030 nM | 2360 nM
22 | Cc1ccc(NC(=O)c2ccc(CN3CCN(C)CC3)c(C(F)(F)F)c2)cc1Oc1ccc(-c2[nH]nc3ncnc(N)c23)cc1 | 12200 nM | 43900 nM

Row | Structure (SMILES) | GI50 | TGI
23 | NC(C/[N+]([O-])=N/O)C(=O)O (stereo unspecified) | 7310 nM | > 500000 nM
24 | NC(=O)c1cc(-c2ccncc2)cc(-c2ccccc2)c1N | 6440 nM | > 25000 nM
25 | N#CC(C#N)=Cc1c(-c2ccccc2)[nH]c2ccccc12 | 955 nM | 5210 nM
26 | CCCCN(CCCC)c1ccc(C(=N)c2ccc(N(C)C)cc2)cc1 | 249 nM | 966 nM
27 | COc1cc(/C=C/C(=O)c2cc(OC)c(OC)c(OC)c2)ccc1Oc1nc(NCCO)nc(N2CCOCC2)n1 | 1710 nM | 4300 nM
28 | IP(CCCCCCCCCCSc1n(Cc2ccc3ccccc3c2)c(-c2ccccc2)c(-c2ccccc2)[n+]1Cc1ccc2ccccc2c1)(c1ccccc1)(c1ccccc1)c1ccccc1 | 267 nM | 918 nM
29 | C=CCn1c(=O)c2cnc(Nc3ccc(N4CCN(C)CC4)cc3)nc2n1-c1ccc2c(n1)[C@@](O)(CC)CC2 | 189 nM | 698 nM
30 | CN(CCC#N)c1ccc(/C=C(\C#N)c2cccc(C(F)(F)F)c2)cc1 | 797 nM | > 100000 nM
31 | CN(Cc1cnc(N)nc1N)c1ccc(C(=O)O)cc1 | > 100000 nM | > 100000 nM
32 | CN1CCN(c2ccc(-c3ccc4ncc(C#N)c(Nc5ccc(F)c(Cl)c5)c4c3)cc2)CC1 | 431 nM | 2100 nM
33 | Cc1cc2cccnc2c2ncccc12 | 2030 nM | 5480 nM
34 | COc1cc(-c2nn(-c3ccc(NC(=O)Nc4ccc(Cl)c(Cl)c4)cc3)cc2-c2ccncc2)ccc1Cl | 2150 nM | 5720 nM
35 | CCN(CC)C(=O)CC1=C(C)/C(=C/c2[nH]c(-c3ccc[nH]3)cc2OC)N=C1C | 572 nM | 17900 nM
36 | O=C(CCCn1c(=O)c2sc3ccccc3c2n2nnc(-c3ccccc3)c12)NCCc1cnc[nH]1 | 1690 nM | 3680 nM
37 | COc1cc(-c2n/c(=C\c3c(O)[nH]c4ccc(Cl)cc34)cc3c2=Nc2ccccc2-3)cc(OC)c1OC | 1730 nM | 4260 nM
38 | COc1cccc(C(=O)Nc2ccc(CN3CCc4nc5cc(OC)c(OC)cc5cc43)cc2)c1 | 4010 nM | 31900 nM
39 | COc1ccc2c(c1)[C@]1(C[C@H]1c1ccc3c(/C=C/c4ccc(CN5C[C@@H](C)O[C@@H](C)C5)cc4)n[nH]c3c1)C(=O)N2 | 2990 nM | > 92400 nM
40 | Cc1oc2nc[nH]c(=O)c2c1C(=O)/C=C/c1ccc(Cl)cc1 | 1380 nM | 3870 nM
41 | COc1cc(NS(C)(=O)=O)ccc1Nc1c2ccccc2nc2c(C)cccc12 | 236 nM and 298 nM | 779 nM and 1670 nM
42 | C=C1C(=O)O[C@H]2[C@H]1CC/C(Cn1cc(CNCCc3c[nH]c4ccc(Cl)cc34)nn1)=C\CC[C@@]1(C)O[C@@H]21 | 2190 nM | 9190 nM
43 | Cc1onc(-c2c(F)cccc2Cl)c1-c1ncc(-c2ccc(Cl)cc2)o1 | 3490 nM | > 100000 nM

Source: PubChem BioAssay (NCI)
